7 compounds from patent US20190309309A1, “BACTERIAL CELLS WITH IMPROVED TOLERANCE TO POLYOLS” (DANMARKS TEKNISKE UNIVERSITET, priority 2016, published 2019) can be followed below.

SMILES strings stand for the structures. Entries after “also recorded” stand apart in the source; their conditions may differ. Read-outs that look alike come from different tables or passages of the source.

The subject of data set [1] is Escherichia coli K-12 MG1655. As to the kind of experiment: Screening for tolerance in wild-type cells: growth in varying concentrations of diols (Biolector). The format is cell-based. The following applies: for growth observed at maximum concentration / Maximum concentration for robust growth: K-12 MG1655; for toxicity threshold: E. coli.
For data set [2], the system named is E. coli K-12 MG1655. It is filed as cell-based.
Data set [3] concerns K-12 MG1655. The format is cell-based, Escherichia coli.
Where [4] appears, read: growth rate of K-12 MG1655, diol 0.5% (v/v), M9+1% glucose, 37° C.
[5] abbreviates: growth rate of K-12 MG1655, diol 1% (v/v).
Setting [6] is: growth rate of K-12 MG1655, diol 2% (v/v).
Where [7] appears, read: growth rate of K-12 MG1655, diol 3.5% (v/v).
[8] abbreviates: growth rate of K-12 MG1655, diol 5% (v/v).
Setting [9] is: growth rate of K-12 MG1655, diol 7.5% (v/v).
The mark [10] stands for this setting: growth rate of K-12 MG1655, diol 10% (v/v).
[11] abbreviates: lag time of K-12 MG1655, diol 0.5% (v/v).
Setting [12] is: lag time of K-12 MG1655, diol 1% (v/v).
Setting [13] is: lag time of K-12 MG1655, diol 2% (v/v).
Setting [14] is: lag time of K-12 MG1655, diol 3.5% (v/v).
[15] abbreviates: K-12 MG1655, diol 1 % (v/v), Growth Profiler.
[16] abbreviates: K-12 MG1655, diol 2 % (v/v), Growth Profiler.
Where [17] appears, read: K-12 MG1655, diol 3 % (v/v), Growth Profiler.
Setting [18] is: K-12 MG1655, diol 4 % (v/v), Growth Profiler.
[19] abbreviates: K-12 MG1655, diol 5 % (v/v), Growth Profiler.
Where [20] appears, read: K-12 MG1655, diol 6 % (v/v), Growth Profiler.
The mark [21] stands for this setting: K-12 MG1655, diol 7.5 % (v/v), Growth Profiler.
[22] abbreviates: lag time of K-12 MG1655, diol 5% (v/v).

Turning to `OCCCCCO` [1,5-pentanediol], the “growth observed at maximum concentration” value in data set [1] came out at 3.5%. In addition, the “μ, mean” value came to 0.613 h⁻¹ in data set [1] (setting [4]); 0.569 h⁻¹ in data set [1] (setting [5]); 0.437 h⁻¹ in data set [1] (setting [6]); 0.158 h⁻¹ in data set [1] (setting [7]); 0.000 h⁻¹ in data set [1] (setting [8]); 0.000 h⁻¹ in data set [1] (setting [9]). In addition, in data set [1] (setting [10]), the “μ, mean” value was 0.000 h⁻¹. For the same compound, the “tlag, mean” value in data set [1] (setting [11]) was 0.3 h; in data set [1] (setting [12]), 0.5 h; in data set [1] (setting [13]), 0.9 h; in data set [1] (setting [14]) it was -8.8 h.
In the case of `OCCCCO` [1,4-butanediol], the “growth inhibition of E. coli K-12 MG1655 (in words)” value in data set [2] was “elicited growth inhibition”.
`OCCCO` [1,3-propanediol]: the “tlag, mean” value in data set [2] (setting [15]) was 5.3 h; in data set [2] (setting [16]), 6.1 h; in data set [2] (setting [17]), 7.3 h; in data set [2] (setting [18]), 9.6 h; in data set [2] (setting [19]), 12.5 h; in data set [2] (setting [20]), 14.7 h. For the same compound, the “tlag, mean” value in data set [2] (setting [21]) worked out at 24.9 h. For the same compound, the “μ, mean” value is 0.670 h⁻¹ in data set [2] (setting [15]); 0.686 h⁻¹ in data set [2] (setting [16]); 0.603 h⁻¹ in data set [2] (setting [17]); 0.463 h⁻¹ in data set [2] (setting [18]); 0.277 h⁻¹ in data set [2] (setting [19]); 0.201 h⁻¹ in data set [2] (setting [20]). The “μ, mean” value in data set [2] (setting [21]) was found to be 0.118 h⁻¹. The “growth inhibition of E. coli K-12 MG1655 (in words)” value in data set [2] (variable concentrations, Growth Profiler) is on record as “elicited growth inhibition”.
Take `CC(O)C(C)O` (centres unmarked) [2,3-butanediol]: the toxicity threshold in data set [1] is listed as 7.5 % (v/v); in data set [1] (conversion of 7.5% (v/v)), 74.0 g/L. In data set [1], the “Maximum concentration for robust growth” value stood at 5%. The “μ, mean” value was 0.944 h⁻¹ in data set [1] (setting [4]); 0.791 h⁻¹ in data set [1] (setting [5]); 0.754 h⁻¹ in data set [1] (setting [6]); 0.498 h⁻¹ in data set [1] (setting [7]); 0.265 h⁻¹ in data set [1] (setting [8]); 0.054 h⁻¹ in data set [1] (setting [9]). For the same compound, in data set [1] (setting [10]), the “μ, mean” value is 0.000 h⁻¹. In addition, the “tlag, mean” value in data set [1] (setting [11]) is 2.2 h; in data set [1] (setting [12]) it was 1.8 h; in data set [1] (setting [13]), 2.1 h; in data set [1] (setting [14]), 1.6 h; in data set [1] (setting [22]), -1.2 h.
`CCCC(O)CO` (centres unmarked) [1,2-pentanediol]: in data set [1], the “growth observed at maximum concentration” value is 1%. Also, the “μ, mean” value worked out at 0.524 h⁻¹ in data set [1] (setting [4]); 0.346 h⁻¹ in data set [1] (setting [5]); 0.000 h⁻¹ in data set [1] (setting [6]); 0.000 h⁻¹ in data set [1] (setting [7]); 0.000 h⁻¹ in data set [1] (setting [8]); 0.000 h⁻¹ in data set [1] (setting [9]). For the same compound, the “μ, mean” value in data set [1] (setting [10]) came to 0.000 h⁻¹. For the same compound, the “tlag, mean” value is 0.4 h in data set [1] (setting [11]) and 1.3 h in data set [1] (setting [12]).
`CC(O)CO` (centres unmarked) [1,2-propanediol]: the “Maximum concentration for robust growth” value in data set [1] is on record as 7.5%. The “μ, mean” value in data set [1] (setting [4]) turned out to be 0.701 h⁻¹; in data set [1] (setting [5]) it was 0.662 h⁻¹; in data set [1] (setting [6]), 0.595 h⁻¹; in data set [1] (setting [7]), 0.442 h⁻¹; in data set [1] (setting [8]) it was 0.406 h⁻¹; in data set [1] (setting [9]), 0.579 h⁻¹. The “μ, mean” value in data set [1] (setting [10]) was found to be 0.000 h⁻¹. In addition, the “tlag, mean” value amounted to 0.9 h in data set [1] (setting [11]); 0.8 h in data set [1] (setting [12]); 0.8 h in data set [1] (setting [13]); 0.5 h in data set [1] (setting [14]); 2.3 h in data set [1] (setting [22]); 8.3 h in data set [1] (lag time of K-12 MG1655, diol 7.5% (v/v)).
Take `CSCC[C@H](N)C(=O)O` [methionine, L-methionine]: in data set [3], the “effect on growth of K-12 MG1655 in 2,3-butanediol” value is “significantly restored”, the “effect on growth of evolved strains in 1,2-propanediol” value is “did not have a significantly enhanced growth rate; also recorded: minimal effect”, the “effect on growth of the wild-type strain in 1,2-propanediol” value is “significantly restored; also recorded: restore growth of the wild-type strain” and the “effect on growth rate of evolved strains in 2,3-butanediol” value was “did not have a significantly enhanced growth rate increase”.
